Assay results as given in ChEMBL document CHEMBL1135046, “Synthesis of an alpha-aminophosphonate nucleoside as an inhibitor of S-adenosyl-L-homocysteine hydrolase” (Bioorg Med Chem Lett, 2002).

T1: Adenosylhomocysteinase (Rattus norvegicus, UniProt P10760)
T1 sequence (P10760 whole entry): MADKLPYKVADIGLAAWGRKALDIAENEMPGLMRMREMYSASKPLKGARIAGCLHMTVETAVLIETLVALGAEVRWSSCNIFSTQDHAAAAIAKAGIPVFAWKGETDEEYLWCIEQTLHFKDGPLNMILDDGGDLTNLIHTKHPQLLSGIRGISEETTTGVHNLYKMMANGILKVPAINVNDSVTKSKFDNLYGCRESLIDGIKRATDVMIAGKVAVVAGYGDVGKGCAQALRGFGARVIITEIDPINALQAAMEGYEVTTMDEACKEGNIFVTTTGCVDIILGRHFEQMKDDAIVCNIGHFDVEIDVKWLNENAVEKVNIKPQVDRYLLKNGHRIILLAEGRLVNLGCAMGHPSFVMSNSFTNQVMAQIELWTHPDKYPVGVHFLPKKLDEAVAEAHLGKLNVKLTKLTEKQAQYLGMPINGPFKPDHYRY

T2: Adenosylhomocysteinase (Rattus norvegicus) (UniProt P10760)
T2 sequence (whole entry): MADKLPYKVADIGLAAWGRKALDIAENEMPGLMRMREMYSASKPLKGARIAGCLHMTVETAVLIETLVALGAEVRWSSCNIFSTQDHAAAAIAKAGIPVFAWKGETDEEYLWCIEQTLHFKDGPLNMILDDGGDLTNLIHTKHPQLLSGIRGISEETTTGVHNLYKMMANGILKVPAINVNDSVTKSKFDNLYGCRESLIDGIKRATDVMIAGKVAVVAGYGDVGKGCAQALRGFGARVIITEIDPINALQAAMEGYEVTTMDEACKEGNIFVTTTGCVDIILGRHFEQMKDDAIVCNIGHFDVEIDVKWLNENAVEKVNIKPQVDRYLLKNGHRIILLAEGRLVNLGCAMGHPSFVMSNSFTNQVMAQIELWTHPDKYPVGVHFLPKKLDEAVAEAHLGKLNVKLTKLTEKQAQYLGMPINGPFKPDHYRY


Experiments:
Adenosylhomocysteinase = biological target: T1, Adenosylhomocysteinase; assay: (§1) Inhibition constant for the compound was determined against the recombinant rat liver AdoHyc hydrolase (MV1304/pUCSAH)
[1] = biological target: T2, Adenosylhomocysteinase (Rattus norvegicus); assay: as §1
[2] = substrate: Nc1ncnc2c1ncn2[C@@H]1O[C@H](CSCC[C@H](N)C(=O)O)[C@@H](O)[C@H]1O
Description: Km for the compound was determined against the recombinant rat liver AdoHyc hydrolase (MV1304/pUCSAH)

Molecule	Ki (Adenosylhomocysteinase) [µM]	K inact [1] [min⁻¹]	Km [2] [µM]
CC(C)CSC[C@H]1OC(n2cnc3c(N)ncnc32)[C@H](O)[C@@H]1O (some centres not stated)	105	0.0488	
Nc1ncnc2c1ncn2C1OC(CSCC[C@H](N)C(=O)O)[C@@H](O)[C@H]1O (stereo in doubt; form 2) [listing 1 of 2 here]	345		
Nc1ncnc2c1ncn2C1OC(CSCC[C@H](N)C(=O)O)[C@@H](O)[C@H]1O (stereo in doubt; form 1) [listing 1 of 2 here]		0.0145	
Nc1ncnc2c1ncn2C1OC(CSCC[C@H](N)C(=O)O)[C@@H](O)[C@H]1O (stereo in doubt; form 2) [listing 2 of 2 here]		0.0049	
Nc1ncnc2c1ncn2C1OC(CSCC[C@H](N)C(=O)O)[C@@H](O)[C@H]1O (stereo in doubt; form 1) [listing 2 of 2 here]	1090		
Adenosylhomocysteinase (Rattus norvegicus), P10760 (protein) MADKLPYKVADIGLAAWGRKALDIAENEMPGLMRMREMYSASKPLKGARIAGCLHMTVETAVLIETLVALGAEVRWSSCNIFSTQDHAAAAIAKAGIPVFAWKGETDEEYLWCIEQTLHFKDGPLNMILDDGGDLTNLIHTKHPQLLSGIRGISEETTTGVHNLYKMMANGILKVPAINVNDSVTKSKFDNLYGCRESLIDGIKRATDVMIAGKVAVVAGYGDVGKGCAQALRGFGARVIITEIDPINALQAAMEGYEVTTMDEACKEGNIFVTTTGCVDIILGRHFEQMKDDAIVCNIGHFDVEIDVKWLNENAVEKVNIKPQVDRYLLKNGHRIILLAEGRLVNLGCAMGHPSFVMSNSFTNQVMAQIELWTHPDKYPVGVHFLPKKLDEAVAEAHLGKLNVKLTKLTEKQAQYLGMPINGPFKPDHYRY			9.7
